Reference: patent US9920069B2, “Compounds for treatment of fluoroquinolone-resistant bacteria” (The Board of Trustees of the University of Illinois, priority 2014, dated 2018)
Converted amounts (≈) assume the structure as drawn. Like-named read-outs stand apart in the source and are kept apart here.

How the values were obtained:
[1] = tested on: MRSA clinical isolate SAU.3017
Method: (§1) Susceptibility testing was performed in triplicate using the microdilution broth method as outlined by the Clinical and Laboratory Standards Institute CLSI^52. MH broth was used.

[2] = tested on: MRSA clinical isolate SAU.447; assay: MIC, microdilution broth; type: cell-based, S. aureus; details: Staphylococcus aureus
Method: as §1

[3] = tested on: MRSA clinical isolate SAU.3021; assay: MIC, microdilution broth; type: cell-based, S. aureus
Method: as §1

[4] = tested on: MRSA clinical isolate SAU.42; assay: MIC, microdilution broth; type: cell-based, S. aureus; details: Staphylococcus aureus
Method: as §1

[5] = tested on: MRSA clinical isolate SAU.3024; assay: MIC, microdilution broth; type: cell-based, S. aureus; details: Staphylococcus aureus
Method: as §1

[6] = tested on: MRSA clinical isolate SAU.3026; assay: MIC, microdilution broth; type: cell-based, S. aureus
Method: as §1

[7] = tested on: MRSA clinical isolate SAU.446; assay: MIC, microdilution broth; type: cell-based, S. aureus; details: Staphylococcus aureus
Method: as §1

[8] = tested on: MRSA clinical isolate SAU.2996; assay: MIC, microdilution broth; type: cell-based, S. aureus
Method: as §1

[9] = tested on: MRSA clinical isolate SAU.846; assay: MIC, microdilution broth; type: cell-based, S. aureus
Method: as §1

[10] = tested on: MRSA clinical isolate SAU.669; assay: MIC, microdilution broth; type: cell-based, S. aureus; details: Staphylococcus aureus
Method: as §1

[11] = tested on: MRSA clinical isolate SAU.555; assay: MIC, microdilution broth; type: cell-based, S. aureus; details: Staphylococcus aureus
Method: as §1

[12] = tested on: MRSA clinical isolate SAU.1118; assay: MIC, microdilution broth; type: cell-based, S. aureus; details: Staphylococcus aureus
Method: as §1

[13] = tested on: MRSA clinical isolate SAU.419; assay: MIC, microdilution broth; type: cell-based, S. aureus
Method: as §1

[14] = tested on: MRSA clinical isolate SAU.3025; assay: MIC, microdilution broth; type: cell-based, S. aureus; details: Staphylococcus aureus
Method: as §1

[15] = tested on: MRSA clinical isolate SAU.709; assay: microbe, parasite or virus in culture; type: cell-based, S. aureus; details: Staphylococcus aureus, read-out: MIC
Method: as §1

[16] = tested on: MRSA clinical isolate SAU.710; assay: microbe, parasite or virus in culture; type: cell-based, S. aureus; details: Staphylococcus aureus, read-out: MIC
Method: as §1

[17] = tested on: MRSA clinical isolate SAU.496; assay: microbe, parasite or virus in culture; type: cell-based, S. aureus; details: Staphylococcus aureus, read-out: MIC
Method: as §1

[18] = tested on: MRSA clinical isolate SAU.494; assay: microbe, parasite or virus in culture; type: cell-based, S. aureus; details: Staphylococcus aureus, read-out: MIC
Method: as §1

[19] = tested on: MRSA clinical isolate SAU.493; assay: microbe, parasite or virus in culture; type: cell-based, S. aureus; details: Staphylococcus aureus, read-out: MIC
Method: as §1

[20] = tested on: MRSA clinical isolate SAU.491; assay: microbe, parasite or virus in culture; type: cell-based, S. aureus; details: Staphylococcus aureus, read-out: MIC
Method: as §1

[21] = tested on: MRSA clinical isolate SAU.489; assay: microbe, parasite or virus in culture; type: cell-based, S. aureus; details: Staphylococcus aureus, read-out: MIC
Method: as §1

[22] = tested on: MRSA clinical isolate SAU.492; assay: microbe, parasite or virus in culture; type: cell-based, S. aureus; details: Staphylococcus aureus, read-out: MIC
Method: as §1

[23] = tested on: MRSA clinical isolate SAU.495; assay: microbe, parasite or virus in culture; type: cell-based, S. aureus; details: Staphylococcus aureus, read-out: MIC
Method: as §1

[24] = tested on: VRE clinical isolate S206; assay: organism not typed; type: cell-based, E. faecalis
Method: (§2) QRDR mutations were determined as described in the text using primers (primer sequences can be found in Table 7).
as §1

[25] = tested on: VRE clinical isolate C28036; assay: microbe, parasite or virus in culture; type: cell-based, Ent. Spp.; details: Enterococcus
Method: as §2, §1

P. aeruginosa PAO1 = assay: microbe, parasite or virus in culture; type: cell-based; details: Pseudomonas aeruginosa, gyrA none, parC none
Method: (§3) E. coli MG1655 and the ΔAcrB strain were obtained from Prof. Cari Vanderpool at UIUC.
as §1

A. baumannii ATCC 19606 = assay: microbe, parasite or virus in culture; type: cell-based; details: Acinetobacter baumannii, ATCC19606, gyrA none, parC none
Method: as §3, §1

E. coli ATCC 25922 = assay: microbe, parasite or virus in culture; type: cell-based; details: Escherichia coli, ATCC25922, gyrA none, parC none
Method: as §3, §1

[26] = tested on: VRE clinical isolate S557; assay: organism not typed; type: cell-based, E. faecium; details: read-out: MIC
physchem [27] = details: organic solvent or mixture, thermodynamic from solid
MRSA clinical isolates = assay: Panel of MRSA clinical isolates (FIG. 2A); type: cell-based, S. aureus; details: n=21, in words
VRE clinical isolates = assay: Panel of VRE clinical isolates (FIG. 2B); type: cell-based, Enterococcus; details: n=22, in words
Enterococcus ATCC 29212 = assay: organism not typed; type: cell-based, E. faecalis; details: ATCC 29212, E. faecalis; gyrA WT, parC WT; read-out: MIC
VRE clinical isolate D1 = assay: organism not typed; type: cell-based, E. faecium; details: read-out: MIC
Enterococcus ATCC 19433 = assay: organism not typed; type: cell-based, E. faecalis; details: ATCC 19433, E. faecalis; gyrA WT, parC WT; read-out: MIC
PA1586 = assay: MIC, microdilution broth; type: cell-based, P. aeruginosa; details: Pseudomonas aeruginosa
Method: as §3, §1

[28] = tested on: S. aureus 29213 (WT GyrA and WT ParC); assay: microbe, parasite or virus in culture; type: cell-based; details: Staphylococcus aureus; WT GyrA and WT ParC; read-out: MIC against S. aureus 29213
Method: as §1

[29] = tested on: VRE clinical isolate S234; assay: organism not typed; type: cell-based, E. faecalis; details: read-out: MIC
[30] = tested on: VRE clinical isolate C27282; assay: organism not typed; type: cell-based, E. faecium
Method: as §2, §1

[31] = tested on: VRE clinical isolate C21190; assay: organism not typed; type: cell-based, E. faecium
Method: as §2, §1

[32] = tested on: VRE clinical isolate S226; assay: organism not typed; type: cell-based, E. faecium
Method: as §2, §1

VRE clinical isolate U63 = assay: organism not typed; type: cell-based, E. faecium
Method: as §2, §1

[33] = tested on: VRE clinical isolate U275; assay: organism not typed; type: cell-based, E. faecium
Method: as §2, §1

[34] = tested on: VRE clinical isolate U563; assay: organism not typed; type: cell-based, E. faecium
Method: as §2, §1

[35] = tested on: VRE clinical isolate S235; assay: organism not typed; type: cell-based, E. faecium
Method: as §2, §1

[36] = tested on: VRE clinical isolate U503; assay: organism not typed; type: cell-based, E. faecium
Method: as §2, §1

[37] = tested on: VRE clinical isolate U464; assay: organism not typed; type: cell-based, E. faecium
Method: as §2, §1

VRE clinical isolate S51 = assay: organism not typed; type: cell-based, E. faecium
Method: as §2, §1

VRE clinical isolate S34 = assay: organism not typed; type: cell-based, E. faecium
Method: as §2, §1

[38] = tested on: MRSA clinical isolate SAU.708; assay: microbe, parasite or virus in culture; type: cell-based, S. aureus; details: Staphylococcus aureus, read-out: MIC
Method: as §1

physchem [39] = details: pH 7.4 PBS; three replicates ± SEM
Method: Enough PBS was added to make a 1 mg/mL solution. Compounds were then assessed by LC-MS and compared to a calibration curve to determine the solubility. […] Data shown is from three independent replicates±SEM. […] Between DMSO additions, the vial was vortexed and sonicated.
The compound was vortexed for ˜30 seconds before being placed into a bath sonicator (Cole Parmer, ultrasonic cleaner) for 1 h. […] The tubes were vortexed again for 30 s before being centrifuged at maximum speed (13,000×g) for 10 minutes. The supernatant was then filtered through a 0.22 μm syringe filter (Millipore Millex MP). […] Three independent replicates of each compound were performed. A calibration curve for each compound was generated from 1-400 μM by dissolving the compound in DMSO and making dilutions of the stock in DMSO. […] The concentration of the samples was calculated based on the calibration curves.

A. baumannii KB349 = assay: MIC, microdilution broth; type: cell-based; details: Acinetobacter baumannii
Method: as §3, §1

A. baumannii KB304 = assay: MIC, microdilution broth; type: cell-based; details: Acinetobacter baumannii
Method: as §3, §1

[40] = Staphylococcus aureus, MRSA, read-out: MIC

## CC1(C)S[C@@H]2[C@H](NC(=O)[C@H](N)c3ccccc3)C(=O)N2[C@H]1C(=O)O [Amp, Ampicillin, reference compound]
[1]
  MIC: >64 µg/mL
[2]
  MIC: > 64 µg/mL
[3]
  MIC: >64 µg/mL
[4]
  MIC: 2 µg/mL (≈ 5.72 µM)
[5]
  MIC: > 64 µg/mL
[6]
  MIC: >64 µg/mL
[7]
  MIC: > 64 µg/mL
[8]
  MIC: >64 µg/mL
[9]
  MIC: >64 µg/mL
[10]
  MIC: > 64 µg/mL
[11]
  MIC: > 64 µg/mL
[12]
  MIC: > 64 µg/mL
[13]
  MIC: >64 µg/mL
[14]
  MIC: 64 µg/mL (≈ 183 µM)
[15]
  MIC: > 64 µg/mL
[16]
  MIC: > 64 µg/mL
[17]
  MIC: > 64 µg/mL
[18]
  MIC: > 64 µg/mL
[19]
  MIC: > 64 µg/mL
[20]
  MIC: > 64 µg/mL
[21]
  MIC: > 64 µg/mL
[22]
  MIC: > 64 µg/mL
[23]
  MIC: > 64 µg/mL

## CCCn1c(=O)cc(C)c2cc3c(C)cc(=O)n4c3c(c21)OC4 [DNM-8]
[24]
  MIC: 4 µg/mL (≈ 12.9 µM)
[25]
  MIC: 1 µg/mL (≈ 3.22 µM)
P. aeruginosa PAO1
  MIC: > 32 µg/mL
A. baumannii ATCC 19606
  MIC: > 32 µg/mL
E. coli ATCC 25922
  MIC: > 32 µg/mL
[26]
  MIC: 0.5 µg/mL (≈ 1.61 µM)
Physchem [27]
  solubility: 11.3 mM (≈ 3510 µg/mL)
MRSA clinical isolates
  sensitivity of MRSA clinical isolates: sensitive
VRE clinical isolates
  sensitivity of VRE clinical isolates: sensitive
Enterococcus ATCC 29212
  MIC: 8 µg/mL (≈ 25.8 µM)
VRE clinical isolate D1
  MIC: 0.5 µg/mL (≈ 1.61 µM)
Enterococcus ATCC 19433
  MIC: 16 µg/mL (≈ 51.6 µM)
PA1586
  MIC: > 32 µg/mL
[28]
  MIC: 16 µg/mL (≈ 51.6 µM)
[29]
  MIC: 0.5 µg/mL (≈ 1.61 µM)
[3]; [40]
  MIC: 0.125 µg/mL (≈ 0.403 µM)
[6]; [40]
  MIC: 0.25 µg/mL (≈ 0.806 µM)
[11]
  MIC: 0.5 µg/mL (≈ 1.61 µM)
[13]; [40]
  MIC: 0.25 µg/mL (≈ 0.806 µM)
[30]
  MIC: 8 µg/mL (≈ 25.8 µM)
[31]
  MIC: 8 µg/mL (≈ 25.8 µM)
[32]
  MIC: 1 µg/mL (≈ 3.22 µM)
VRE clinical isolate U63
  MIC: 4 µg/mL (≈ 12.9 µM)
[33]
  MIC: 4 µg/mL (≈ 12.9 µM)
[34]
  MIC: 4 µg/mL (≈ 12.9 µM)
[35]
  MIC: 1 µg/mL (≈ 3.22 µM)
[36]
  MIC: 4 µg/mL (≈ 12.9 µM)
[37]
  MIC: 2 µg/mL (≈ 6.44 µM)
VRE clinical isolate S51
  MIC: 1 µg/mL (≈ 3.22 µM)
VRE clinical isolate S34
  MIC: 2 µg/mL (≈ 6.44 µM)
[15]
  MIC: 0.25 µg/mL (≈ 0.806 µM)
[16]
  MIC: 0.125 µg/mL (≈ 0.403 µM)
[17]
  MIC: 0.25 µg/mL (≈ 0.806 µM)
[18]
  MIC: 0.25 µg/mL (≈ 0.806 µM)
[19]
  MIC: 0.25 µg/mL (≈ 0.806 µM)
[38]
  MIC: 1 µg/mL (≈ 3.22 µM)
[20]
  MIC: 0.5 µg/mL (≈ 1.61 µM)
[21]
  MIC: 0.25 µg/mL (≈ 0.806 µM)
[23]
  MIC: 0.25 µg/mL (≈ 0.806 µM)
Physchem [39]
  Solubility in pH 7.4 PBS: 68 μM
A. baumannii KB349
  MIC: > 32 µg/mL
A. baumannii KB304
  MIC: > 32 µg/mL
